Key:
[1] = Moisture uptake at high relative humidity (hygroscopicity); type: physicochemical; settings: relative humidities approaching 90%
Text: When exposed to relative humidities approaching 90%, moisture uptake has been measured to be typically less than about 5% for example. […] Other drawbacks commonly associated with manufacturing and using amorphous materials are similarly not present. For example, amorphous materials are often challenging to make chemically pure.

[2] = Stability study at 70° C./75% RH (XRPD physical stability, HPLC purity); type: physicochemical; settings: 70° C. at 75% relative humidity
Text: FIG. 54 is a plot of x-ray powder diffraction pattern taken of crystalline obicetrapib hemicalcium, and FIG. 55 is a plot of x-ray powder diffraction patterns taken of crystalline obicetrapib hemicalcium under stress conditions. In FIG. 55, there are four diffraction patterns shown based on stability study set forth in Example 11.27. Pattern 1 is an x-ray powder diffraction pattern of a sample of amorphous obicetrapib hemicalcium. Pattern 2 is the x-ray powder diffraction pattern of a sample of crystalline obicetrapib hemicalcium. In pattern 3, the sample of crystalline obicetrapib hemicalcium was exposed to 70° C. at 75% relative humidity for one day. […] Pattern 1 was taken before the sample was placed on stability.
Stability study was conducted on crystalline and amorphous forms of obicetrapib at 70° C./75% relative humidity (RH). The solids were placed into a 4.0 ml glass vial without caps (open condition) and stored at 70° C./75% RH. Samples were pulled out of the stability chamber at day 1 (24 hours) and at 7-day time point. The solids were analyzed by XRPD for physical stability and by HPLC for chemical purity. The sample collected at each time point was dissolved in methanol before HPLC analysis. In order to minimize the effect of potential analyte adsorption on the filter, the initial 0.5 mL of supernatant passing through the filter was discarded prior to collecting sample for HPLC analysis. Purity for each sample was determined based on peak area percent and compared to the sample at T=0.

[3] = Kinetic solubility in FaSSIF (pH 6.5) at 37° C.; type: physicochemical; settings: FaSSIF pH 6.5, 37° C., as obicetrapib free acid
Text: (§1) The amorphous form has a higher kinetic solubility and dissolution rate than the crystalline form (and by extension obicetrapib itself). Both crystalline and amorphous obicetrapib hemicalcium kinetic solubility determinations were made in biorelevant media at different pHs, namely at about 5.0 (FeSSIF conditions) and at pH of about 6.5 (FaSSIF) conditions as set forth in Example 11.28.
The concentrations in Table X are those of obicetrapib (i.e., the free acid).
(§2) The solids were magnetically stirred at 600 RPM in a shaker bath and samples were drawn with a 1.0 ml syringe at T=15 mins, 30 mins, 60 mins, 90 mins and 120 mins. The solubility was measured using HPLC method provided by the client. The compound was added to 4.0 ml glass vials at approximately 20.0 mg/ml. Samples were agitated with a vortex mixer for about 5 minutes to ensure the presence of undissolved excess powder. The sample collected at each time point was centrifuged at 1200 RPM, filtered with 0.45 μm Polytetrafluoroethylene (PTFE) filters and diluted with methanol before HPLC analysis. In order to minimize the effect of potential analyte adsorption on the filter, the initial 0.5 mL of supernatant passing through the filter was discarded prior to collecting sample for HPLC analysis.

[4] = Kinetic solubility in FeSSIF (pH 5.0) at 37° C.; type: physicochemical; settings: FeSSIF pH 5.0, 37° C., as obicetrapib free acid
Text: as §1
The concentrations in Table W are those of obicetrapib (i.e., the free acid).
as §2

LDL-C [5] = experiment: ROSE2 phase 2b clinical trial - LDL-C; type: in vivo, human; settings: ROSE2; ezetimibe added on top of obicetrapib
Protocol: The primary objective of this study is to evaluate the effect of obicetrapib 10 mg+ezetimibe 10 mg combination therapy compared with placebo, when used as an adjunct to high-intensity statin therapy, on LDL-C at Day 84.
The secondary objectives of this study include the following, in hierarchical order: • To evaluate the effect of obicetrapib 10 mg monotherapy compared with placebo, when used as an adjunct to high-intensity statin therapy, on LDL-C at Day 84; • To evaluate the effect of obicetrapib 10 mg+ezetimibe 10 mg combination therapy compared with placebo, when used as an adjunct to high-intensity statin therapy, on ApoB at Day 84; and • To evaluate the effect of obicetrapib 10 mg monotherapy compared with placebo, when used as an adjunct to high-intensity statin therapy, on ApoB at Day 84.
This study will be a placebo-controlled, double-blind, randomized, Phase 2 study to evaluate the efficacy, safety, and tolerability of obicetrapib 10 mg, both in combination with ezetimibe 10 mg and as monotherapy, as an adjunct to high-intensity statin therapy. This study will take place at approximately 20 sites in the United States.
Up to 2 weeks after the Screening Visit, participants will return to the site on Day 1 (Visit 2) and confirm study eligibility before being randomized and beginning treatment. Approximately 114 eligible participants (38 participants per treatment group) will be randomized in a 1:1:1 ratio to 1 of the following treatment groups: • Combination therapy: Obicetrapib 10 mg+ezetimibe 10 mg (administered as one 10 mg obicetrapib tablet and one 10 mg ezetimibe capsule); • Obicetrapib monotherapy: Obicetrapib 10 mg (administered as one 10 mg obicetrapib tablet and 1 placebo capsule); or • Placebo (administered as 1 placebo tablet and 1 placebo capsule).
During the 12-week Treatment Period, the assigned study drugs will be administered by the participants orally with water, once daily on Day 1 to Day 84 at approximately the same time each morning. Participants will return to the site on Day 28 (+2 days), Day 84 (+2 days), and Day 112 (+2 days) for efficacy, safety, and pharmacokinetic (PK) assessments. Participants, Investigators, the Clinical Research Organization (CRO), and the Sponsor will be blinded to all lipid results from Day 1 (Visit 2) for the first participant until all enrolled participants complete the Day 84 (End of Treatment) visit or are withdrawn from the study, in order to protect blinding to treatment assignment.
The primary efficacy endpoint is the percent change from Day 1 to Day 84 in LDL-C for the obicetrapib 10 mg+ezetimibe 10 mg combination treatment group compared with the placebo group.
The secondary efficacy endpoints include the following, in hierarchical order: • Percent change from Day 1 to Day 84 in LDL-C for the obicetrapib 10 mg monotherapy • treatment group compared with the placebo group; • Percent change from Day 1 to Day 84 in ApoB for the obicetrapib 10 mg+ezetimibe 10 mg • combination treatment group compared with the placebo group; and • Percent change from Day 1 to Day 84 in ApoB for the obicetrapib 10 mg monotherapy treatment group compared with the placebo group.
The exploratory efficacy endpoints include the following: • Percent change from Day 1 to Day 84 in non-HDL-C, VLDL-C, HDL-C, TG, ApoE, Lp(a), and HDL-ApoE for the obicetrapib 10 mg+ezetimibe 10 mg combination treatment group compared with the placebo group and for the obicetrapib 10 mg monotherapy treatment group compared with the placebo group; and • Proportion of participants at Day 84 that achieve LDL-C<2.6 mmol/L (<100 mg/dL), LDL-C<1.8 mmol/L (<70 mg/dL), and LDL-C<1.3 mmol/L (<50 mg/dL) for the obicetrapib 10 mg+ezetimibe 10 mg combination treatment group compared with the placebo group and for the obicetrapib 10 mg monotherapy treatment group compared with the placebo group. […]

LDL-C [6] = settings: cited from earlier work
[7] = in water; cited from earlier work

| SMILES | moisture uptake [1] | physical stability by x-ray powder diffraction ([2]; 7 days) | physical stability by x-ray powder diffraction ([2]; 14 days) | Concentration in Solution ([3]; 15 mins) | Concentration in Solution ([3]; 30 mins) | Concentration in Solution ([3]; 60 mins) | Concentration in Solution ([3]; 90 mins) | Concentration in Solution ([3]; 120 mins) | Concentration in Solution ([4]; 15 mins) | Concentration in Solution ([4]; 30 mins) | Concentration in Solution ([4]; 60 mins) | Concentration in Solution ([4]; 90 mins) | Concentration in Solution ([4]; 120 mins) | physical stability by x-ray powder diffraction ([2]; one day) | additional/incremental (median) reduction of LDL-C (LDL-C [5]) | incremental reduction in LDL-C levels (LDL-C [6]; ezetimibe in combination with statins (Catapano et al. 2016)) | LDL-C levels reduced (LDL-C [6]; ezetimibe mono-therapy, hyperlipidemic patients (Catapano et al. 2016)) | mean reduction in LDL-C compared with placebo (LDL-C [6]; ezetimibe monotherapy, hypercholesterolemia, meta-analysis of 8 randomized studies) | greater reduction in LDL-C compared with statin alone (LDL-C [6]; statin and ezetimibe in combination, meta-analysis of 27 studies) | solubility [7] |
| --- | --- | --- | --- | --- | --- | --- | --- | --- | --- | --- | --- | --- | --- | --- | --- | --- | --- | --- | --- | --- |
| CCOC(=O)N1c2ccc(C(F)(F)F)cc2[C@@H](N(Cc2cc(C(F)(F)F)cc(C(F)(F)F)c2)c2ncc(OCCCC(=O)O)cn2)C[C@H]1CC [amorphous obicetrapib hemicalcium] | less than 5% | remained amorphous | remained amorphous | – | – | – | – | – | – | – | – | – | – | – | – | – | – | – | – | – |
| CCOC(=O)N1c2ccc(C(F)(F)F)cc2[C@@H](N(Cc2cc(C(F)(F)F)cc(C(F)(F)F)c2)c2ncc(OCCCC(=O)[O-])cn2)C[C@H]1CC.CCOC(=O)N1c2ccc(C(F)(F)F)cc2[C@@H](N(Cc2cc(C(F)(F)F)cc(C(F)(F)F)c2)c2ncc(OCCCC(=O)[O-])cn2)C[C@H]1CC.[Ca+2] [Crystalline obicetrapib hemicalcium, reference compound] | – | the result remains the same | – | 30 µg/mL | 48 µg/mL | 84 µg/mL | 107 µg/mL | 144 µg/mL | 85 µg/mL | 169 µg/mL | 369 µg/mL | 453 µg/mL | 529 µg/mL | near total loss of crystallinity | – | – | – | – | – | – |
| O=C1[C@H](CC[C@H](O)c2ccc(F)cc2)[C@@H](c2ccc(O)cc2)N1c1ccc(F)cc1 [Ezetimibe, (3R,4S)-1-(4-fluorophenyl)-3-[(3S)-3-(4-fluorophenyl)-3-hydroxypropyl]-4-(4-hydroxyphenyl)azetidin-2-one] | – | – | – | – | – | – | – | – | – | – | – | – | – | – | about 32% | 15-20% | 15-22% | 18.58% | 15.1% | practically insoluble |

— US20250186442A1, “Obicetrapib and Ezetimibe Combination Treatment and Fixed Dose Pharmaceutical Compositions” (NewAmsterdam Pharma B.V., priority 2022, published 2025)
